Results: patent US11865176B2, “Compositions and methods of modulating anti-tumor immunity” (Dana-Farber Cancer Institute, Inc., priority 2016, dated 2024)

Test system: PD-1-overexpressing Jurkat cells
Test: Small molecule screen: IL2 secretion (AlphaLISA) from stimulated PD-1-overexpressing Jurkat cells
Type: cell-based, human
Settings: 3.3 μM compound; for Zscore_1 / Zscore_2: IL2 level, α-CD3/α-CD28/α-PD-1 beads; for Zscore_1: replicate 1; for Zscore_2: replicate 2; for Zscore_AVG: average of replicate Z scores
Experimental: PD-1-overexpressing Jurkat cells were plated at a concentration of 100,000 cells/well in a total volume of 80 μl. […] Dynabeads conjugated to α-CD3, α-CD28, and α-PD-1 antibodies were added in 20 for a final assay volume of 100 with a final compound concentration of 3.3 μM and an 8:1 bead:cell ratio. Beads were conjugated to α-CD3/α-CD28/control IgG and added to wells containing DMSO-treated cells as a positive control, while beads conjugated to α-CD3/α-CD28/α-PD1 were added to wells containing DMSO-treated cells as a negative control. Supernatants from each well were analyzed for IL2 levels by AlphaLISA (Perkin Elmers) according to the manufacturer's protocol. Average and standard deviation values were calculated from the PD-1 controls (DMSO-treated cells stimulated with α-CD3/α-CD28/α-PD-1 beads); hits were defined as compounds scoring at least 3 standard deviations from the mean of the controls.
In addition to known negative regulators of IL-2 production (e.g. glycogen synthase kinase-3α/β (GSK3α/β) (24,25)), this screen identified cyclin-dependent kinases 4 and 6 inhibitors (CDK4/6i) as top hits (Table 1).

| SMILES | Zscore_1 | Zscore_2 | Zscore_AVG |
| --- | --- | --- | --- |
| N#Cc1c(C2CCNCC2)cc(-c2c(O)cccc2OCC2CC2)nc1N [IKK-2 Inhibitor VIII] | −0.6795 | −0.365 | −0.5222 |
| NC(=O)Nc1sc(-c2ccccc2)cc1C(N)=O [IKK-2 Inhibitor VI] | −5.576 | −7.212 | −6.394 |
| O=C(Nc1cc(C(F)(F)F)cc(C(F)(F)F)c1)c1cc(Cl)ccc1O [IKK-2 Inhibitor V] | −5.485 | −7.792 | −6.638 |
| COc1cc2ncn(-c3cc(OCc4ccccc4S(C)(=O)=O)c(C#N)s3)c2cc1OC [IKK-3 Inhibitor IX] | 3.754 | 2.454 | 3.104 |
| O=[N+]([O-])c1ccc(CNc2nc(NCc3cccc(C(F)(F)F)c3)nc3nc[nH]c23)cc1 [IP3K Inhibitor] | 1.006 | −0.0969 | 0.4547 |
| O=C(Nc1nc2ccccc2n1CCN1CCOCC1)c1cccc([N+](=O)[O-])c1 [IRAK-1/4 Inhibitor] | −0.5038 | −1.963 | −1.233 |
| O=C1Nc2ccccc2/C1=C1/Nc2ccccc2/C1=N\OCC(O)CO (stereo not drawn) [Indirubin Derivative E804] | 20.78 | 24.43 | 22.6 |
| O=C1Nc2ccc(I)cc2/C1=C1/Nc2ccccc2/C1=N\O [Indirubin-3′-monoxime, 5-Iodo-] | 10.18 | 17.16 | 13.67 |
| COc1cc2ncnc(Nc3ccc(O)c(Br)c3)c2cc1OC [JAK3 Inhibitor II] | −0.7783 | −1.36 | −1.069 |
| CC(C)N(CCC(=O)c1ccc2ccccc2c1)Cc1ccccc1 [JAK3 Inhibitor IV] | 0.2022 | 0.908 | 0.5551 |
| CC(C)(C)c1nc2c3cc[nH]c(=O)c3c3cc(F)ccc3c2[nH]1 [JAK Inhibitor I] | −4.034 | −6.012 | −5.023 |
| O=C1c2ccccc2-c2n[nH]c3cccc1c23 [JNK Inhibitor II] | 0.4426 | 0.5814 | 0.512 |
| N#Cc1c(NC(=O)c2cccc3ccccc23)sc2c1CCCC2 [JNK Inhibitor IX] | 0.5842 | −0.05285 | 0.2657 |
| CCOc1nc(NC(=O)Cc2cc(OC)ccc2OC)cc(N)c1C#N [JNK Inhibitor VIII] | −1.284 | −2.969 | −2.126 |
| N#CC(c1ccnc(NCCc2cccnc2)n1)c1nc2ccccc2s1 (stereo not drawn) [JNK Inhibitor V] | −0.3788 | 3.626 | 1.623 |
| Cn1nc2c3c(cccc31)C(=O)c1ccccc1-2 [JNK Inhibitor, Negative Control] | 0.1027 | 1.046 | 0.5746 |
| COC(=O)[C@@]1(O)C[C@H]2O[C@]1(C)n1c3ccccc3c3c4c(c5c6ccccc6n2c5c31)C(=O)NC4 [K-252a, Nocardiopsis sp.] | −4.42 | −6.58 | −5.5 |
| CN([C@@H](Cc1ccc(OS(=O)(=O)c2cccc3cnccc23)cc1)C(=O)N1CCN(c2ccccc2)CC1)S(=O)(=O)c1cccc2cnccc12 [KN-62] | −0.2488 | −0.8434 | −0.5461 |
| COc1ccc(S(=O)(=O)Nc2ccccc2CN(C)C/C=C/c2ccc(Cl)cc2)cc1 [KN-92] | 0.5356 | 0.3912 | 0.4634 |
| COc1ccc(S(=O)(=O)N(CCO)c2ccccc2CN(C)C/C=C/c2ccc(Cl)cc2)cc1 [KN-93] | −0.2896 | −2.889 | −1.589 |
| CCCCCCOC(=O)[C@]1(O)C[C@@H]2O[C@@]1(C)n1c3ccccc3c3c4c(c5c6ccccc6n2c5c31)C(=O)NC4 [KT5720] | 10.81 | 13.17 | 11.99 |
| O=C1Cc2c([nH]c3ccc(Br)cc23)-c2ccccc2N1 [Kenpaullone] | −0.7695 | −1.747 | −1.258 |
| Nc1ccc(-c2cccc3c(=O)cc(N4CCOCC4)oc23)cc1 [LY 294002,4-NH2] | 3.33 | 7.54 | 5.435 |
| O=c1cc(N2CCOCC2)oc2c(-c3ccccc3)cccc12 [LY 294002] | −1.451 | 0.6923 | −0.3791 |

| SMILES | Zscore_1 | Zscore_2 | Zscore_AVG |
| --- | --- | --- | --- |
| O=c1cc(N2CCNCC2)oc2c(-c3ccccc3)cccc12 [LY 303511] | 1.21 | −0.8685 | 0.1705 |
| Nc1ncnc2c1c(-c1ccc(Oc3ccccc3)cc1)cn2C1CCCC1 [Lck Inhibitor] | −8.467 | −8.924 | −8.695 |
| N#C/C(=C(/N)Sc1ccc(N)cc1)c1ccccc1C(F)(F)F [MEK 1/2 Inhibitor] | −4.769 | −6.395 | −5.582 |
| O=C1C(Cl)=C(N2C(=O)CCC2=O)C(=O)c2ccccc21 [MEK Inhibitor II] | −2.22 | −1.364 | −1.792 |
| N#C/C(=C(/N)Sc1ccccc1N)c1cccc(C(O)c2ccncc2)c1 (stereo not drawn) [MEK Inhibitor I] | −4.599 | −4.873 | −4.736 |
| O=C(CCCc1ccc(-c2ccccc2F)cc1)Nc1ccc(O)cc1 [MK2a Inhibitor] | −1.455 | −2.305 | −1.88 |
| O=C1NCCc2[nH]c(-c3ccnc(-c4cnc5ccccc5c4)c3)cc21 [MK-2 Inhibitor III] | −4.419 | −7.061 | −5.74 |
| Cl.O=S(=O)(c1cccc2c(I)cccc12)N1CCCNCC1 [ML-7, Hydrochloride] | 2.906 | 0.08811 | 1.497 |
| Nc1ncnc2n[nH]c(Nc3ccc(F)cc3)c12 [MNK1 Inhibitor] | −2.022 | −0.3911 | −1.206 |
| CN1C(=O)C(Cc2c[nH]c3ccccc23)NC1=S (stereo not drawn) [Necrostatin-1] | −1.566 | 1.447 | −0.05934 |
| CC[C@H](CO)Nc1nc(NCc2ccccc2O)c2ncn(C(C)C)c2n1 [Olomoucine II] | 0.3445 | 2.103 | 1.224 |
| COc1cccc(-c2cc(=O)c3ccccc3o2)c1N [PD98059] | −1.781 | −1.614 | −1.698 |
| CNc1cc2c(Nc3cccc(Br)c3)ncnc2cn1 [PD 158780] | 0.3787 | 0.8816 | 0.6302 |
| O=[N+]([O-])c1ccc(-c2nc(-c3ccc(F)cc3)c(-c3ccncc3)[nH]2)cc1 [PD 169316] | −0.1697 | 0.08497 | −0.04235 |
| CCC(=O)Nc1ccc2ncnc(Nc3cccc(Br)c3)c2c1 [PD 174265] | −0.1183 | 0.5895 | 0.2356 |
| COc1cc2nccc(Oc3ccc(NC(=S)NC(=O)c4ccccc4C)cc3)c2cc1OC [PDGF RTK Inhibitor] | −3.239 | −6.099 | −4.669 |
| COc1cc2ncnc(N3CCN(C(=O)Nc4ccc(Oc5ccccc5)cc4)CC3)c2cc1OC [PDGF Receptor Tyrosine Kinase Inhibitor III] | 1.681 | 3.032 | 2.357 |
| CCCC(=O)Oc1ccc2[nH]c(C(=O)c3cc4ccccc4[nH]3)cc2c1 [PDGF Receptor Tyrosine Kinase Inhibitor II] | −0.7009 | 0.7754 | 0.03721 |
| COc1cc2c(cc1OC)-c1[nH]nc(Nc3cccc(F)c3)c1C2 [PDGF Receptor Tyrosine Kinase Inhibitor IV] | −0.8894 | −1.508 | −1.199 |
| O=C1NC(=O)/C(=C/c2ccc3nccnc3c2)S1 [PI 3-Kg Inhibitor] | 0.8957 | 2.23 | 1.563 |
| Oc1cccc(-c2nc(N3CCOCC3)c3sccc3n2)c1 [PI 3-Kα Inhibitor IV] | 1.287 | 0.7223 | 1.005 |
| Cc1ccc([N+](=O)[O-])cc1S(=O)(=O)N(C)/N=C/c1cnc2ccc(Br)cn12.Cl [PI 3-Kα Inhibitor VIII] | −7.658 | −10.33 | −8.993 |
| Cc1cc(C(C)Nc2ccccc2)c2nc(N3CCOCC3)cc(=O)n2c1 (stereo not drawn) [PI 3-Kβ Inhibitor VI, TGX-221] | 2.504 | 2.528 | 2.516 |
| Oc1cccc(-c2nc(N3CCOCC3)c3oc4ncccc4c3n2)c1 [PI-103] | −0.718 | 0.8433 | 0.06265 |
